Data taken from US20170334899A1, “AMINO-SUBSTITUTED ISOTHIAZOLES” (Bayer Pharma Aktiengesellschaft, priority 2014, published 2017).

The molecules below were run against T1, human kinase Mps-1 (Homo sapiens, UniProt P33981) (assay: Mps-1 kinase assay (TR-FRET)). Conditions: Mps-1 TR-FRET kinase assay; avg; read-out: Mps1 avg (IC50 [mol/l]).
T1 construct: N-terminally GST-tagged human full length recombinant Mps-1 kinase; GST (N); purchased Invitrogen, Karslruhe, Germany PV4071
T1 sequence (P33981 1-857): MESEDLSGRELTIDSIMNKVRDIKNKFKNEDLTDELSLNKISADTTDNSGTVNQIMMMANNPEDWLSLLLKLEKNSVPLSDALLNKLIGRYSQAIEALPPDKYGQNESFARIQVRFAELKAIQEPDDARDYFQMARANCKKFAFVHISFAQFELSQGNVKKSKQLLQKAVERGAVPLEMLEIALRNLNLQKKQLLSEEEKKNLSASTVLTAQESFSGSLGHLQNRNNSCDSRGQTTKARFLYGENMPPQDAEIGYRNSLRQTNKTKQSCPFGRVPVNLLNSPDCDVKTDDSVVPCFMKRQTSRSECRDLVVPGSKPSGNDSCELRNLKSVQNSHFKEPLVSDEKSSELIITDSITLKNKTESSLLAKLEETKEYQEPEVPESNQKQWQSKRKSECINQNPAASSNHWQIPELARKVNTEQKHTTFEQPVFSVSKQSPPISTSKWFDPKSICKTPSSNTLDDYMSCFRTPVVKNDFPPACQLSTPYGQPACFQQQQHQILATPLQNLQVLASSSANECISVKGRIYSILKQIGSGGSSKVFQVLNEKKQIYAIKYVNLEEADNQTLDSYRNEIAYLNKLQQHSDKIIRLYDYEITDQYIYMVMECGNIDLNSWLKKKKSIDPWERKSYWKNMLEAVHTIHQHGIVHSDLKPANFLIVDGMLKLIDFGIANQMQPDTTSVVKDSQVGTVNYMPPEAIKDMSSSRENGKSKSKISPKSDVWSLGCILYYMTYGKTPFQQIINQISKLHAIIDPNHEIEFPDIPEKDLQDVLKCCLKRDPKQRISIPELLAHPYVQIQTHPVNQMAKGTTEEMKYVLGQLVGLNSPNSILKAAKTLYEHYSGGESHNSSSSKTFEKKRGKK
Format: biochemical
Method in brief: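 Inhibition normalised between uninhibited reaction (0%) and enzyme-free wells (100%), using the blank-corrected TR-FRET 665/620 nm ratio after EDTA stop. Reaction: ~0.5 nM GST-Mps-1 full length, 10 μM ATP, 1 μM biotin-peptide, 60 min at 22 °C, after 15 min compound pre-binding, pH 7.7.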
For `Cc1nsc(Nc2cnc(C(F)(F)F)cn2)c1C(=O)Nc1ccc(F)c(OC2CCN(CC(F)(F)F)C2)c1` (stereo not drawn) [Example 315, N-(4-fluoro-3-{[1-(2,2,2-trifluoroethyl)pyrrolidin-3-yl]oxy}phenyl)-3-methyl-5-{[5-(trifluoromethyl)pyrazin-2-yl]amino}-1,2-thiazole-4-carboxamide], the IC50 was no less than 20 µM.
`Cc1nsc(Nc2cnc(C(F)(F)F)cn2)c1C(=O)Nc1ccc(F)c(OCC2CCN(CC(F)F)C2)c1` (stereo not drawn) [Example 316, N-(3-{[1-(2,2-difluoroethyl)pyrrolidin-3-yl]methoxy}-4-fluorophenyl)-3-methyl-5-{[5-(trifluoromethyl)pyrazin-2-yl]amino}-1,2-thiazole-4-carboxamide] showed an IC50 of no less than 20 µM.
With `Cc1nsc(Nc2cnc(C(F)(F)F)cn2)c1C(=O)Nc1ccc(F)c(OCC2CCN(CCF)C2)c1` (stereo not drawn) [Example 317, N-(4-fluoro-3-{[1-(2-fluoroethyl)pyrrolidin-3-yl]methoxy}phenyl)-3-methyl-5-{[5-(trifluoromethyl)pyrazin-2-yl]amino}-1,2-thiazole-4-carboxamide] the IC50 was greater than 20 µM.
In the case of `Cc1nsc(Nc2cnc(C(F)(F)F)cn2)c1C(=O)Nc1ccc(F)c(OCC2CCN(C(CF)CF)C2)c1` (stereo not drawn) [Example 320, N-(3-{[1-(1,3-difluoropropan-2-yl)pyrrolidin-3-yl]methoxy}-4-fluorophenyl)-3-methyl-5-{[5-(trifluoromethyl)pyrazin-2-yl]amino}-1,2-thiazole-4-carboxamide], the IC50 is reported as no less than 20 µM.
With `Cc1nsc(Nc2cnc(C(F)(F)F)cn2)c1C(=O)Nc1ccc(OCCNCCF)nc1` [Example 321, N-(6-{2-[(2-fluoroethyl)amino]ethoxy}pyridin-3-yl)-3-methyl-5-{[5-(trifluoromethyl)pyrazin-2-yl]amino}-1,2-thiazole-4-carboxamide] the IC50 was no less than 20 µM.
With `Cc1nsc(Nc2cnc(C(F)(F)F)cn2)c1C(=O)Nc1ccc(OCCNCC(F)(F)F)nc1` [Example 322, 3-methyl-N-(6-{2-[(2,2,2-trifluoroethyl)amino]ethoxy}pyridin-3-yl)-5-{[5-(trifluoromethyl)pyrazin-2-yl]amino}-1,2-thiazole-4-carboxamide] the IC50 was no less than 20 µM.
